{"source": "patent US20170204038A1", "about": "“3-(4-ISOBUTYL-2-METHYLPHENYL) PROPANAL AS PERFUME INGREDIENT” (Givaudan, S.A., priority 2013, published 2017)", "key": {"[1]": {"experiment": "Odour Value (ratio of vapour pressure to detection threshold concentration)", "text": "The compound of formula (I) is a particularly impactful perfume ingredient. The impact that a perfume ingredient exerts is related to its Odour Value. Odour Value is the ratio of vapour pressure to detection threshold concentration."}, "rat hepatocytes": {"tested_on": "rat hepatocytes", "experiment": "In vitro metabolism study in rat hepatocytes in suspension (GC-MS / LC-MS)", "settings": "for Residual test compound: male, Sprague-Dawley, rat, 4 h, 100 μM", "protocol": "In order to study in vitro metabolism in rat hepatocytes Lilial™ and the compound of the present invention are incubated in presence of rat hepatocytes in suspension. Decrease of Lilial™ and the compound of the present invention, and formation of the corresponding benzoic acid derivative may be analysed by GC-MS.\nCryopreserved hepatocytes from male rats (Sprague Dawley; Lifetechnologies) were defrozen, washed in Cyropreserved Hepatocytes Recovery Medium (CHRM; Lifetechnologies) and suspended in Williams E Medium (WEM; Lifetechnologies). Lilial™, or the compound of formula (I) (final concentration: 100 μM) were added to the cells (1×10^6 viable cells/ml) and suspensions were incubated up to 4 hours at 37° C. on a shaker in duplicate. Metabolism of testosterone was monitored as positive control. Decrease of the test compounds and formation of the corresponding benzoic acid derivative was determined by GC-MS analysis of methyl-esters formed after derivatisation with trimethylsilyl-diazomethane (Sigma-Aldrich) in methanol. The test compounds react with diazomethane yielding a methyl-ketone which was used for the quantification of Lilial™ and the compound of formula (I). Metabolism was stopped with ice cold 1 M HCl, samples were extracted with tert-butyl methyl ether (MTBE) and analysed by GC-MS. Incubations containing testosterone as control were also stopped with ice cold 1 M HCl, centrifuged to separate the cells, filtrated and the decrease of testosterone analysed by LC-MS. To quantify decrease of the test substances and formation of benzoic acid metabolites, calibration curves of reference materials (Lilial™ and the compound of formula (I), tert-butyl benzoic acid (Fluka) was prepared in hepatocyte incubation medium and analysed like the hepatocyte samples."}, "glucose synthesis": {"tested_on": "glucose synthesis", "settings": "in vitro; cited from earlier work"}, "fatty acid synthesis": {"tested_on": "fatty acid synthesis", "settings": "in vitro; cited from earlier work"}, "male rats [2]": {"tested_on": "male rats", "settings": "cited from earlier work"}, "mice": {"tested_on": "mice", "settings": "cited from earlier work"}, "guinea-pigs": {"tested_on": "guinea-pigs", "settings": "cited from earlier work"}, "primates": {"tested_on": "primates", "settings": "cited from earlier work"}, "male rats [3]": {"tested_on": "male rats", "settings": "rat, in vivo; cited from earlier work"}, "dogs": {"tested_on": "dogs", "settings": "dog, in vivo; cited from earlier work"}}}
{"compound": "Cc1cc(CC(C)C)ccc1CCC=O", "note": "[Compound of formula (I), 3-(4-isobutyl-2-methylphenyl)propanal]", "values": [{"measurement": "Odour Value", "setting": "[1]", "value": "559,071"}, {"measurement": "Residual test compound", "setting": "rat hepatocytes", "value": 0, "unit": "µM"}]}
{"compound": "C[C@]12CC[C@H]3[C@@H](CCC4=CC(=O)CC[C@@]43C)[C@@H]1CC[C@@H]2O", "note": "[testosterone]", "values": [{"measurement": "Decrease of testosterone (positive control)", "setting": "rat hepatocytes; rat hepatocytes, LC-MS", "value": "rapid decrease"}]}
{"compound": "CC(C)(C)c1ccc(C(=O)O)cc1", "note": "[tert-butyl benzoic acid]", "values": [{"measurement": "inhibition of glucose synthesis", "setting": "glucose synthesis", "value": "inhibit"}, {"measurement": "inhibition of fatty acid synthesis", "setting": "fatty acid synthesis", "value": "inhibit"}, {"measurement": "testicular effects", "setting": "male rats [2]", "value": "cause testicular effects"}]}
{"compound": "CC(C=O)Cc1ccc(C(C)(C)C)cc1", "note": "(centres unmarked) [Lilial™, 3-(4-tert-butylphenyl)-2-methylpropanal]", "values": [{"measurement": "Odour Value", "setting": "[1]", "value": "32,978"}, {"measurement": "Residual test compound", "setting": "rat hepatocytes", "value": 0, "unit": "µM"}, {"measurement": "effects in studies with mice", "setting": "mice", "value": "No effects"}, {"measurement": "effects in studies with guinea-pigs", "setting": "guinea-pigs", "value": "No effects"}, {"measurement": "effects in studies with primates", "setting": "primates", "value": "No effects"}, {"measurement": "toxic effects on the reproductive organs", "setting": "male rats [3]", "value": "toxic effects"}, {"measurement": "toxic effects on the reproductive organs", "setting": "dogs", "value": "toxic effects"}]}
{"compound": "CC(C=O)Cc1ccc(C(C)C)cc1", "note": "(centres unmarked) [Cyclamen aldehyde, 3-p-cumenyl-2-methylpropionaldehyde]", "values": [{"measurement": "Odour Value", "setting": "[1]", "value": "21,986"}]}
